Each structure is given as a SMILES string. Like-named read-outs stand apart in the source and are kept apart here. Where only a bound is given, the exact number is not on record here.

A short description of data set [1]: Plasma pharmacokinetics by HPLC-MS/MS. In kind it is in vivo, human. The conditions noted are these: for concentration at 24 h: read-out: Cmin 24h. How it is done:
Plasma samples were collected pre-dose and 1, 2, 4, 6, 8, 10 and 24 h after the dose on C1/D21. PK trough samples (pre-dose; 2 h post-dose) were obtained on day 21 of cycles 2, 4, 6, 8, 10 and 12.

In another data set the test system is pMEK1/2. Nature of the data set: pMEK1/2 in paired skin biopsies, Western blotting/densitometry. Type of data set: in vivo, human. The note with it: dose escalation, cohort 7, 12 and 13, C1D15. How it is done:
(§1) All patients in the dose escalation phase consented to a fresh frozen punch skin biopsy during screening and on C1/D15 (± 7 days). Fresh frozen skin and tumour biopsies during screening and on C1/D15 (± 7 days) were also required for the first 13 patients in the dose expansion phase. PD markers of MEK1/2 inhibition (pMEK1/2; pERK1/2) in skin biopsies and MET inhibition (pSTAT3) in tumour biopsy were assessed by Western blotting (WB), as previously described. Densitometry on WB images was performed using ImageJ software.

For data set [2] the following is noted: in vivo; cited from earlier work.
How the values of data set [3] were obtained: A rolling-six design was employed.
Safety assessments, ophthalmic/cardiac examinations were performed as previously described. […] Anti-tumour activity was conducted at baseline (within 28 days prior to C1/day 1 (D1)) and then every 2 cycles and evaluated by RECIST v1.1.
Safety and efficacy data were summarised using descriptive statistics. Evaluable patients for toxicity were those patients that received at least one dose of one or both drugs. Evaluable patients for MTD or dose escalation were those patients who completed C1 or withdrew early for experiencing a DLT. Response analyses (RECIST v1.1) were performed on an intention-to-treat basis, and any patient who received any dose of study treatment was evaluable for response. PFS was defined as the time between receiving the first dose of study medication to disease progression or death from any cause. OS was defined as the time between C1D1 to death from any cause. PFS and OS were estimated using the Kaplan–Meier method. Statistical significance was calculated from distinct technical replicates by Student’s t-test (2-tailed, 2 sample equal variance on unpaired data), in GraphPad Prism 8. Graphs were plotted as means with error bars represented as SD; statistical significance was denoted as follows: *** = p < 0.001, ** = p < 0.01, * = p < 0.05, ns = p > 0.05.
This is another data set of the same source.

Another data set concerns pMET^Y1003. Nature of the data set: pMET Y1003 in paired tumour biopsies, Western blotting. Type of data set: in vivo, human. The note with it: one patient with paired biopsy, dose expansion, C1D15. On the technique in general: A western blot detects proteins with antibodies after separation by electrophoresis.
In a further data set the test system is pSTAT3^Y705. Nature of the data set: pSTAT3 Y705 in paired tumour biopsies, Western blotting. In kind it is in vivo, human. The note with it: one patient with paired biopsy, dose expansion, C1D15. How it is done: as §1
In the next data set the test system is cMET. The conditions noted are these: cited from earlier work.
The conditions of data set [4]: patients with advanced solid cancers; cited from earlier work.
The mark [5] stands for this setting: Cycle 1, Day 21, Cohort 7: binimetinib 30mg B.D 28d, crizotinib 200mg B.D, n = 7.
[6] abbreviates: Cycle 1, Day 21, Cohort 12: binimetinib 30mg B.D 21d, crizotinib 200mg B.D, n = 5.
[7] abbreviates: Cycle 1, Day 21, Cohort 13: binimetinib 30mg B.D 21d, crizotinib 250mg O.D, n = 6.
Where [8] appears, read: Cycle 1, Day 21, Dose expansion phase: binimetinib 30mg B.D 21d, crizotinib 250mg O.D, n = 26.
Where [9] appears, read: human, plasma, dose escalation phase, 3 cohorts, oral, read-out: time of peak plasma concentrations after dosing.

Take `O=C(NOCCO)c1cc2[nH]cnc2c(F)c1Nc1ccc(Br)cc1F` [AR0042603]: in data set [1] (setting [5]), the AUC0-10h is reported as 203 (112) ng*h/ml (SD), the Cmax is 25.1 (15.1) ng/ml (SD), the Cmin is on record as 10.4 (2.66) ng/ml (SD) and the Tmax is on record as 3.03 (1.97) h (SD). Besides, in data set [1] (setting [6]), the AUC0-10h is 183 (24.8) ng*h/ml (SD), the Cmax is given as 29.5 (8.62) ng/ml (SD), the Cmin was 10.2 (2.47) ng/ml (SD) and the Tmax is recorded as 1.75 (0.5) h (SD). Also, in [1] (setting [7]), the AUC0-10h is recorded as 121 (28.9) ng*h/ml (SD), the Cmax is on record as 23.4 (8.04) ng/ml (SD), the Cmin is on record as 6.95 (1.6) ng/ml (SD) and the Tmax was 1.84 (1.16) h (SD). Besides, in data set [1] (setting [8]), the AUC0-10h was 194 (85.2) ng*h/ml (SD), the Cmax is on record as 22.7 (16.0) ng/ml (SD), the Cmin is listed as 12.1 (4.8) ng/ml (SD) and the Tmax is 3.15 (1.99) h (SD).

Regarding `Cn1cnc2c(F)c(Nc3ccc(Br)cc3F)c(C(=O)NOCCO)cc21` [binimetinib], in data set [1] (setting [5]), the AUC0-10h was 1604 (554) ng*h/ml (SD), the Cmax is recorded as 265 (83.4) ng/ml (SD), the Cmin is recorded as 77.1 (40.3) ng/ml (SD) and the Tmax is reported as 2.26 (2.14) h (SD). Besides, in data set [1] (setting [6]), the AUC0-10h is recorded as 1780 (706) ng*h/ml (SD), the Cmax is 386 (189) ng/ml (SD), the Cmin is recorded as 85.8 (51.9) ng/ml (SD) and the Tmax is given as 1.75 (0.5) h (SD). Besides, in data set [1] (setting [7]), the AUC0-10h is on record as 1402 (666) ng*h/ml (SD), the Cmax was 320 (136) ng/ml (SD), the Cmin is recorded as 64.0 (28.9) ng/ml (SD) and the Tmax is recorded as 1.51 (0.54) h (SD). Also, in [1] (setting [8]), the AUC0-10h is recorded as 2129 (1152) ng*h/ml (SD), the Cmax is 357 (171) ng/ml (SD), the Cmin is 103 (58.5) ng/ml (SD) and the Tmax is 2.55 (1.5) h (SD). For the same compound, the Tmax in data set [1] (setting [9]) lay within 0.98 to 6 h. In addition, in the data set with pMEK1/2, the “pMEK1/2 (catalytically-inactive) in skin biopsies, post- vs pre-treatment” value was “significant accumulation”. Besides, the “MTD (binimetinib dose in the combination)” value (days 1–21 every 28 days, with crizotinib 250 mg O.D continuously) was determined as 30 mg B.D. Besides, in data set [2], the RP2D is 45 mg B.D and the “doses achieving plasma concentrations required to inhibit pERK1/2” value was at least 30 mg B.D.

In the case of `C[C@@H](Oc1cc(-c2cnn(C3CCNCC3)c2)cnc1N)c1c(Cl)ccc(F)c1Cl` [crizotinib], the “DR-AE determined to be related to the drug” value in [3] (dose escalation phase, of 210 DR-AE) was 164; in data set [3] (dose expansion phase, of 297 DR-AE) it was 244. In addition, the AUC0-10h is listed as 2481 (980) ng*h/ml (SD) in [1] (setting [5]), 2119 (1341) ng*h/ml (SD) in data set [1] (setting [6]), 1467 (410) ng*h/ml (SD) in data set [1] (setting [7]) and 1647 (907) ng*h/ml (SD) in data set [1] (setting [8]). Moreover, the Cmin is recorded as 205 (78.0) ng/ml (SD) in data set [1] (setting [5]), 181 (136) ng/ml (SD) in data set [1] (setting [6]), 114 (43.1) ng/ml (SD) in data set [1] (setting [7]) and 149 (85.3) ng/ml (SD) in data set [1] (setting [8]). Moreover, the AUC0-24h in data set [1] (setting [7]) is 2529 (380) ng*h/ml (SD); in data set [1] (setting [8]), 3479 (2083) ng*h/ml (SD). For the same compound, the “median trough plasma concentrations” value in data set [1] (cohort 13, crizotinib 250 mg O.D) is listed as over 62 ng/mL. The concentration at 24 h in data set [1] (human, plasma, oral, Cycle 1, Day 21, Cohort 13: binimetinib 30mg B.D 21d, crizotinib 250mg O.D, n = 6) was found to be 72.6 ng/mL; in [1] (human, plasma, oral, Cycle 1, Day 21, Dose expansion phase: binimetinib 30mg B.D 21d, crizotinib 250mg O.D, n = 26), 109 ng/mL. The Tmax in [1] (setting [9]) lay within 0.97 to 6 h. Besides, the “pMET Y1003 levels in tumour during treatment” value in the data set on pMET^Y1003 is recorded as “increased”. For the same compound, the “pSTAT3 Y705 levels in tumour during treatment” value with pSTAT3^Y705 is listed as “decreases”. Moreover, the “MTD (crizotinib dose in the combination)” value (continuously, with binimetinib 30 mg B.D days 1–21 every 28 days) was determined as 250 mg O.D. The “pre-clinically predicted effective concentration to inhibit cMET” value with cMET is listed as 62 ng/mL. In addition, the “maximum-tolerated dose (MTD) of crizotinib with PD- 0325901” value in data set [4] is 200 mg B.D.

The values are drawn from article PMC11984268 (BMC Cancer, 2025).
